Test results reported in patent publication US4829086A, “Soft β-adrenergic blocking agents” (priority 1985, dated 1989).
Counter-ions that a name gives are not always drawn.

Tests used:
[1] = Hydrolytic rate in 0.01 N aqueous sodium hydroxide, pH 12.0; assay type: physicochemical; conditions: pH 12.0, ionic strength 0.10 M (NaCl), 27.3 ± 0.2° C.
Procedure: Analytical Methods. A high pressure liquid chromatography (HPLC) method was developed for the determination of the rate constants. The chromatographic analysis was performed in a system consisting of Waters Associates Model 600-A Solvent Delivery System, Model U-6K Injector and Model 440 Dual Channel Absorbance Detector operated at 254 and 280 nm. A 30 cm×3.9 mm (internal diameter) reverse phase μBondpack C18 column (Waters Associates), operated at ambient temperature, was used for all separations. When plasma samples were analyzed, the column was protected with a 2.3 cm×3.9 mm (internal diameter) Guard Column (Waters) packed with μBondpack C18/Corasil packing material. The mobile phase used for the separation of 17 and its degradation product, 5, consisted of water, 1-hexane sulfonic acid in acetic acid (B-6 reagent, Waters), 0.1M triethanolamine and methanol (100:1:100:799). […] For the separation of compounds 10-16 and 18 and their degradation product 5, a mobile phase consisting of water, 1-hexane sulfonic acid in acetic acid (B-6 reagent, Waters), 0.1M triethanolamine and methanol (390:1:10:599) was used.
Determination of the Hydrolytic Rate Constants in Aqueous Solutions. A 0.01M phosphate buffer and 0.01N sodium hydroxide solution were prepared from freshly distilled deionized water. This ionic strength was maintained at 0.1M with sodium chloride. The pH of the phosphate buffer was determined at 37.0° C. with a pH meter standardized at this temperature. For determination of the hydrolytic rate constants, a fresh concentrated solution of the ester in methanol was added to the hydrolytic medium previously equilibrated to the desired temperature and mixed thoroughly to result in an initial concentration of about 5×10^-4 mol. liter^-1. All reactions were run under pseudo first order conditions. Samples of 25 μL were injected into the column at various time intervals and the pseudo first order rate constants were determined from disappearance of the compound by linear regression of natural logarithm of the peak height versus time plots. The half-life and standard error of the rate constant were calculated for each run.

[2] = test system: heart rate response to isoproterenol (β-adrenergic); assay: Cardiovascular experiments in dogs: blockade of isoproterenol heart rate response; assay type: in vivo, mongrel dogs
Procedure: Method. Healthy, mongrel dogs were anesthetized with a combination of morphine sulfate (2.0 mg/kg, subcutaneously) followed in 20 minutes with pentabarbital sodium (15 mg/kg, intravenously). Supplemental pentabarbital was given as necessary. A femoral vein was catheterized with polyethylene tubing to the level of the heart for injecting drug solutions. A polyethylene tube filled with heparinized saline was inserted through the femoral artery and advanced to the thoracic aorta for the measurement of arterial pressure. The left carotid artery was cannulated with a Millar® transducer-tip catheter for measurement of left ventricular pressure (LVP). The rising slope of the LVP signal was differentiated to give dP/dt, an estimate of myocardial contractility. Heart rate was determined via a Grass cardiotachometer triggered by the R wave of the lead II EKG. All variables were recorded on a Grass polygraph.
Dose-response curves were constructed for each experimental variable to graded i.v. doses of the β-adrenergic agonist, isoproterenol. A period of 3-5 minutes was allowed after each injection for variables to return to base-line. Following this, one of the four experimental β-adrenergic blocking agents was given i.v. over a one-minute period. Abbreviated dose-response curves (2-3 dose points) were again constructed to isoproterenol at 15, 30, 45, 60, 75 and 90 minutes after the administration of the test blockers. Using a 50-beat per minute (bpm) increase in heart rate as criteria, the degree of blockade was determined by dividing the dose of isoproterenol needed to produce a 50 bpm increase at various times following administration of an antagonists by the dose needed for this effect during the control period. The doses of the experimental β-adrenergic antagonists given were determined from previous experiments to produce an approximate two- or four-fold blockade of the heart rate response to isoproterenol.

[3] = test system: heart rate response to isoproterenol (β-adrenergic); assay: Heart rate response to isoproterenol in rats (initial drug screening); assay type: in vivo, male Spraque-Dawley rats; conditions: 6 mg/kg i.p.
Description: Initial Drug Screening Protocol. Thirty-two male Spraque-Dawley rats (Blue Spruce Farms) initially weighing 300-450 gm were divided into seven different groups, each for a different drug to be tested: 12(n=4), 14(n=4), 17(n=5), 13(n=4) and 18(n=3), corresponding to the designated compounds 12, 14, 17, 13 and 18 (number of animals), respectively. The other two groups were controls (n=8, isoproterenol alone pretreated with carrier) and those treated with a known β-blocker, dl-propranolol (n=3). Ech animal was anesthetized with sodium pentobarbital (45 mg/kg) and the carotid artery was cannulated with PE-50 tubing. The cannula was subcutaneously threaded around the neck and exteriorized dorsally between the shoulder blades. Th cannula was filled with a heparin solution (300 μg/mL) and sealed with a solid 22 gauge stylet. The animals were housed in individual stainless steel cages, and two days were allowed for recovery from the surgery. Food and water were provided ad libitum. On the day of the experiment, the blood pressure and heart rate of each rat were monitored with a pressure transducer (Narco-Bio model P-1000) and the data recorded on a four-channel physiograph (Narco-Bio systems Marck IV). One hour was allowed as an equilibration period before any drugs were administered. All beta blockers were administered intraperitoneally at a dose of 6 mg/kg. Compounds 12 and 14 and dl-proranolol were dissolved in normal saline while compounds 13, 17 and 18 were dissolved in an ethanol: water solution (3:1). Depending on the trial, controls were administered the appropriate carrier. One hour after administration of the blocker, isoproterenol (Isuprel®, Wintrop Laboratories) was administered subcutaneously at a dose of 25 μg/kg. Blood pressures and heart rate also were recorded 3, 5, 10, 15, 20, 30, 45 and 60 minutes after isoproterenol administration. Both control and experimental animals were unrestrained and free moving in their home cage throughout the experiment. […] However, significant differences in the mean heart rate response amoung the 7 groups were observed: *p<0.005;**p<0.025. Comparisons between groups were made by the Newman-Keuls procedure with significance set at the 95% confidence interval. […] All data are shown as mean±standard error of the mean.

[4] = 1 mg/kg i.v., 15 minute measurements

CC(C)NCC(O)COc1ccc(CC(=O)OC2CC(C)(C)CC(C)(C)C2)cc1 (centres unmarked) [Compound 17, 3,3,5,5-Tetramethylcyclohexyl 4-(2-hydroxy-3-isopropylamino)propoxyphenylacetate oxalate 3/4 hydrate]
Observed pseudo first order hydrolytic rate constant k ([1]; 0.01 N NaOH, ± SEM): 1.56 ± 0.04 × 10^-2 min^-1 | half-life ([1]; 0.01 n naoh, pH 12, 0.01 N NaOH, read-out: Half-life t1/2): 44.4 min | Duration, Mean (time at which response to isoproterenol had returned to control levels) ([2]; 1 mg/kg i.v.): ~ 70 min | Duration, Range (time at which response to isoproterenol had returned to control levels) ([2]; 1 mg/kg i.v.): 45 to 90 min | Maximal blockade, Mean (time necessary to reach maximal blockade) [2, 4]: 40 min | Maximal blockade, Range (time necessary to reach maximal blockade) [2, 4]: 30 to 60 min | duration of action ([2]; i.v.): much more variable and generally longer | mean heart rate response to isoproterenol, comparison between groups ([3]; 1 hour before isoproterenol 25 μg/kg s.c., Newman-Keuls, first 20 minutes (17) or first 30 minutes (propranolol)): significantly different from both control- and compound 18-treated groups | control of heart rate 60 minutes after administration ([3]; FIG. 1): effectively control the heart rate | mean heart rate response to isoproterenol vs groups treated with compound 12 and 18 ([3]; 10 through 45 minutes following isoproterenol): significantly different than the groups treated with compound 12 and 18 | resting heart rate prior to administration of isoproterenol ([3]; mean ± SEM): 372±19 beat/minute
